Data taken from ChEMBL document CHEMBL3351909, “In vitro and in vivo characterization of a benzofuran derivative, a potential anticancer agent, as a novel Aurora B kinase inhibitor” (Eur J Med Chem, 2015).

How the values were obtained:
[1] = target: T1, Aurora kinase B (Homo sapiens, UniProt Q96GD4); experiment: Inhibition of recombinant AURKB (unknown origin) after 60 mins by z'-lyte kinase assay
[2] = target: T2, Aurora kinase A (Homo sapiens, UniProt O14965); experiment: Inhibition of recombinant AURKA (unknown origin) after 60 mins by z'-lyte kinase assay
T2 sequence (O14965 whole entry): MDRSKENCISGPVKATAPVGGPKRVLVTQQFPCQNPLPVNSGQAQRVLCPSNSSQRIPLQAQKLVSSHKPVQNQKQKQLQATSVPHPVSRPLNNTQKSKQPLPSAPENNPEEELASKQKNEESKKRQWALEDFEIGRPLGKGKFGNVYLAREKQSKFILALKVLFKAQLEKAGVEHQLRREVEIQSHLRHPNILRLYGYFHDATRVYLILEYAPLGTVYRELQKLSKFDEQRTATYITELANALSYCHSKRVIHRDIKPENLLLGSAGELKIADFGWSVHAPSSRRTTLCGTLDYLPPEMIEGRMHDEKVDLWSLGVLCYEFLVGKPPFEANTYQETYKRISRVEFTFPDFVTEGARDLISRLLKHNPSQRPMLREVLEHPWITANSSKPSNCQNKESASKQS

[3] = target: Glycogen synthase kinase-3 beta (Homo sapiens, UniProt P49841); experiment: Inhibition of recombinant GSK-3 beta (unknown origin) after 60 mins by z'-lyte kinase assay
Chain of Glycogen synthase kinase-3 beta (P49841 whole entry): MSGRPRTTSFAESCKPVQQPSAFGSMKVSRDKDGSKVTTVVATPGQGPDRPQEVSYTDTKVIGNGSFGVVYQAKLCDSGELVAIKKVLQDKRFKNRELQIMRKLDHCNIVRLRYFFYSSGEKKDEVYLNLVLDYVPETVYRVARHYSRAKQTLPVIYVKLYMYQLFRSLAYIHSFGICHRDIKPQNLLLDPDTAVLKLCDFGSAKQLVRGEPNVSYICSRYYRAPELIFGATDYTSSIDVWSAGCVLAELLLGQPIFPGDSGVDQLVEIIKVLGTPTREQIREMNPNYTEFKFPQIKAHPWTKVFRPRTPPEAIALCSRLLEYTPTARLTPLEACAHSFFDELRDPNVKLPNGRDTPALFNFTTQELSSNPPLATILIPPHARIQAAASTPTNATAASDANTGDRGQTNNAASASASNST

[4] = target: Vascular endothelial growth factor receptor 1 (Homo sapiens, UniProt P17948); experiment: Inhibition of recombinant FLT1 (unknown origin) after 60 mins by z'-lyte kinase assay
Chain of Vascular endothelial growth factor receptor 1 (P17948 whole entry): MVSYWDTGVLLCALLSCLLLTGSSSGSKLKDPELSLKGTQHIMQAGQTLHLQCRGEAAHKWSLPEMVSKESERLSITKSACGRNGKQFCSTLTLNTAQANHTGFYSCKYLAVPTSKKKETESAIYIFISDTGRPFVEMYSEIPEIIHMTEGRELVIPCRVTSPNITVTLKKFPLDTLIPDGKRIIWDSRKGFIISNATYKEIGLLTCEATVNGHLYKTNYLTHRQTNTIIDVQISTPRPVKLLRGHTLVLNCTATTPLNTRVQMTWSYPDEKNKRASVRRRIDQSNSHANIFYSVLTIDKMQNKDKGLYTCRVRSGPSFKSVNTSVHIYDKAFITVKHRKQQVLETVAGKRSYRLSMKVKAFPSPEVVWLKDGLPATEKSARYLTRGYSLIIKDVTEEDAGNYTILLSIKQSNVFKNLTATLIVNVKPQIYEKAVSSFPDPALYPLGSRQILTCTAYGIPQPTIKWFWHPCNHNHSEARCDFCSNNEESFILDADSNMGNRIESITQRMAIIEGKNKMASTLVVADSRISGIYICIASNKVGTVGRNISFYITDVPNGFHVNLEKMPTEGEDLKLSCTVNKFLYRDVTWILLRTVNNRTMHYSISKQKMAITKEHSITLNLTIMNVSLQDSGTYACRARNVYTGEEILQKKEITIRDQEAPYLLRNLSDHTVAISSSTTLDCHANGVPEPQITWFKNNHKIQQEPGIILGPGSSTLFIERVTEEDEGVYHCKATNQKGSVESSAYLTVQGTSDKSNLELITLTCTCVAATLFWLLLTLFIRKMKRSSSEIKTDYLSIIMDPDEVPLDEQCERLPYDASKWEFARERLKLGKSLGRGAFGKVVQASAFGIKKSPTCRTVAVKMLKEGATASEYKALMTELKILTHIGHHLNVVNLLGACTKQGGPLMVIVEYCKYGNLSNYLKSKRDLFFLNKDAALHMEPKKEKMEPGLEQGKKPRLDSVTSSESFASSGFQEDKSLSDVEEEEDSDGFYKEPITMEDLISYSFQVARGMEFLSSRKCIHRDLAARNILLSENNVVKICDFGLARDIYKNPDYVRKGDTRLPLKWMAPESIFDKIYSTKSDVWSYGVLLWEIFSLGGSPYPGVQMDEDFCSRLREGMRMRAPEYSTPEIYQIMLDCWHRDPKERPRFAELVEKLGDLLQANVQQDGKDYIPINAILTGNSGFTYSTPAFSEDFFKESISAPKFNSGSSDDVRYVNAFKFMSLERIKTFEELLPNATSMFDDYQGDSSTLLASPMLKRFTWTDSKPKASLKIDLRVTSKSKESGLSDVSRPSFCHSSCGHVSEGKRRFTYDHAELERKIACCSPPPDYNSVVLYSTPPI

[5] = target: Platelet-derived growth factor receptor alpha (Homo sapiens, UniProt P16234); experiment: Inhibition of recombinant PDGFR alpha (unknown origin) after 60 mins by z'-lyte kinase assay
Chain of Platelet-derived growth factor receptor alpha (P16234 whole entry): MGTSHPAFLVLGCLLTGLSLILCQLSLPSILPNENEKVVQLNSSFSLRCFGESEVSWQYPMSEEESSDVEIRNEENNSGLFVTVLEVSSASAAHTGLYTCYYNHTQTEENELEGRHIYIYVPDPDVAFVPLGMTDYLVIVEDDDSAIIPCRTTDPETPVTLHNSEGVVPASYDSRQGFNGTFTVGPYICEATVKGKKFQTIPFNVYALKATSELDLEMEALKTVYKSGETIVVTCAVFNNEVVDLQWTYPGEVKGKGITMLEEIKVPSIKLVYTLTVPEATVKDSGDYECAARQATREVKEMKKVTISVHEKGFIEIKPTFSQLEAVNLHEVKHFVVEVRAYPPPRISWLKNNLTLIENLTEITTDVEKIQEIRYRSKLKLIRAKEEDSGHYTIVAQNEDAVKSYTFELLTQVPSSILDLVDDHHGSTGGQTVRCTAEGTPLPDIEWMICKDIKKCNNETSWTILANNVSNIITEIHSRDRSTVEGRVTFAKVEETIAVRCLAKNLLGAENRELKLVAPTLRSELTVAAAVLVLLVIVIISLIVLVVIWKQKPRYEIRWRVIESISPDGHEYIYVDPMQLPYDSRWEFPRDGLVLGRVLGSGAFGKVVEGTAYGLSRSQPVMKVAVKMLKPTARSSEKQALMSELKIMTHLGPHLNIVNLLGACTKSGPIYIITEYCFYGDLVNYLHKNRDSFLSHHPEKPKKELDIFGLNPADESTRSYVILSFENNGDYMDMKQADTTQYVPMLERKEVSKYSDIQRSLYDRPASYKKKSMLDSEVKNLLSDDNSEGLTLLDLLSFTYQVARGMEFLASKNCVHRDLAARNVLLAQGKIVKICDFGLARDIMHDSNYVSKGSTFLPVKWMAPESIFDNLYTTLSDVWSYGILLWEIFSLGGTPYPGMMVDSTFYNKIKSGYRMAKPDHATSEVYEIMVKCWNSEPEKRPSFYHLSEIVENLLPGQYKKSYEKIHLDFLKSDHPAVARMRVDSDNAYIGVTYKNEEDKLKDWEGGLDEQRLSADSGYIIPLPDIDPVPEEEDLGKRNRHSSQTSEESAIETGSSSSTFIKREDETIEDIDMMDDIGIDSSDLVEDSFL

[6] = target: Aurora kinase C (Homo sapiens, UniProt Q9UQB9); experiment: Inhibition of recombinant AURKC (unknown origin) after 60 mins by z'-lyte kinase assay
[7] = target: Vascular endothelial growth factor receptor 3 (Homo sapiens, UniProt P35916); experiment: Inhibition of recombinant FLT4 (unknown origin) after 60 mins by z'-lyte kinase assay
Chain of Vascular endothelial growth factor receptor 3 (P35916 whole entry): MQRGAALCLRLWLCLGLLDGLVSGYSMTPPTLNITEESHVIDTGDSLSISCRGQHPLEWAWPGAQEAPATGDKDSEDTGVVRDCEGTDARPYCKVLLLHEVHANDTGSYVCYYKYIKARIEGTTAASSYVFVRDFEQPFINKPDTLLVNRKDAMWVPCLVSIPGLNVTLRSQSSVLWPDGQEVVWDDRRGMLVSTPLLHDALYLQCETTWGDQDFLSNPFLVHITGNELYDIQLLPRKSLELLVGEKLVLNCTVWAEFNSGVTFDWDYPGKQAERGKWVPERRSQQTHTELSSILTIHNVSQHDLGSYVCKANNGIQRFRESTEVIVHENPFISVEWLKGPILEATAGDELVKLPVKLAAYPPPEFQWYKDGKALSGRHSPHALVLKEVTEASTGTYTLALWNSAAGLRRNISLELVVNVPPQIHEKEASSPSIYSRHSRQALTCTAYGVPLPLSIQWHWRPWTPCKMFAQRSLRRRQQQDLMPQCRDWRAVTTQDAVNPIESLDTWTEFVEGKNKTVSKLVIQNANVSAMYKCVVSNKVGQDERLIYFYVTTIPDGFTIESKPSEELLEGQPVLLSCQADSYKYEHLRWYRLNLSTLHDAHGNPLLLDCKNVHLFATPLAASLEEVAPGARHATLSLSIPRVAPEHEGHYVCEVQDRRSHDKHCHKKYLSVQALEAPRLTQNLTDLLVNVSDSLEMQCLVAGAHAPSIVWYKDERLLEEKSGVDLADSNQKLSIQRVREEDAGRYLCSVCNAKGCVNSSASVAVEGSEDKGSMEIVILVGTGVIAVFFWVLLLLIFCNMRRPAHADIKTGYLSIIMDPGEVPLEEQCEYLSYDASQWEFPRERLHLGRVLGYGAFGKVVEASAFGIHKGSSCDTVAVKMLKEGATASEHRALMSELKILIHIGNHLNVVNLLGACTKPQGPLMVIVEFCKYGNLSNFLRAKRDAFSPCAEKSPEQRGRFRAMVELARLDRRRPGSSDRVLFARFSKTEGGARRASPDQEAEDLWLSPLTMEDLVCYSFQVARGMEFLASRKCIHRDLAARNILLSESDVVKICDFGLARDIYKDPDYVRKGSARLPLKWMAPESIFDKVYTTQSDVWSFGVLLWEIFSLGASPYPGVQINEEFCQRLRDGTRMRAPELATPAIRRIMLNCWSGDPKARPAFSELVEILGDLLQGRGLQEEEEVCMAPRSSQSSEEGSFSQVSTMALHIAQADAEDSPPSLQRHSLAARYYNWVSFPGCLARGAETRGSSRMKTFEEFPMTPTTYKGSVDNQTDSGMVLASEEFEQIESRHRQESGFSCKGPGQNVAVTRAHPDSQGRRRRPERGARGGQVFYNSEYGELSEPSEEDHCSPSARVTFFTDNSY

[8] = target: Vascular endothelial growth factor receptor 2 (Homo sapiens, UniProt P35968); experiment: Inhibition of recombinant KDR (unknown origin) after 60 mins by z'-lyte kinase assay
[9] = target: Serine/threonine-protein kinase Nek1 (Homo sapiens, UniProt Q96PY6); experiment: Inhibition of recombinant NEK1 (unknown origin) after 60 mins by z'-lyte kinase assay
[10] = target: AMP-activated protein kinase, AMPK; experiment: Inhibition of recombinant AMPK A1/B1/G1 (unknown origin) after 60 mins by z'-lyte kinase assay; format: protein-complex assay, Homo sapiens
[11] = target: Protein kinase C alpha type (Homo sapiens, UniProt P17252); experiment: Inhibition of recombinant PKC alpha (unknown origin) after 60 mins by z'-lyte kinase assay
[12] = target: Cyclin-dependent kinase 1/cyclin B1 (Homo sapiens, UniProt P06493); experiment: Inhibition of recombinant CDK1/cyclin B (unknown origin) after 60 mins by z'-lyte kinase assay; format: protein-complex assay
[13] = target: RAC-alpha serine/threonine-protein kinase (Homo sapiens, UniProt P31749); experiment: Inhibition of recombinant AKT1 (unknown origin) after 60 mins by z'-lyte kinase assay
[14] = target: Casein kinase I isoform alpha (Homo sapiens, UniProt P48729); experiment: Inhibition of recombinant CK1 alpha1 (unknown origin) after 60 mins by z'-lyte kinase assay
[15] = target: Mitogen-activated protein kinase 1 (Homo sapiens, UniProt P28482); experiment: Inhibition of recombinant MAPK1 (unknown origin) after 60 mins by z'-lyte kinase assay
[16] = target: T2, Aurora kinase A; experiment: Binding affinity to AURKA (unknown origin)
[17] = target: T1, Aurora kinase B; experiment: Binding affinity to AURKB (unknown origin)
[18] = test system: SW-620; experiment: Cytotoxicity against human SW620 cells after 96 hrs by CCK-8 assay; format: functional, cell-based; conditions: SW-620, 96 h
[19] = test system: HepG2; experiment: Cytotoxicity against human HepG2 cells after 96 hrs by CCK-8 assay; format: functional, cell-based; conditions: HepG2, 96 h
[20] = test system: HeLa; experiment: Cytotoxicity against human HeLa cells after 96 hrs by CCK-8 assay; format: functional, cell-based
[21] = Cytotoxicity against human HCT116 cells after 96 hrs by CCK-8 assay; format: functional, cell-based; conditions: HCT-116, 96 h
[22] = test system: MCF7; experiment: Cytotoxicity against human MCF7 cells after 96 hrs by CCK-8 assay; format: functional, cell-based; conditions: MCF7, 96 h
[23] = Cytotoxicity against human QGY7401 cells after 96 hrs by CCK-8 assay; format: functional, cell-based
[24] = test system: SMMC-7721; experiment: Cytotoxicity against human SMMC7721 cells after 96 hrs by CCK-8 assay; format: functional, cell-based; conditions: SMMC-7721, 96 h
[25] = Cytotoxicity against human SPC-A1 cells after 96 hrs by CCK-8 assay; format: functional, cell-based; conditions: SPCA1, 96 h
[26] = Cytotoxicity against human FOCUS cells after 96 hrs by CCK-8 assay; format: functional, cell-based
[27] = Cytotoxicity against human HuH7 cells after 96 hrs by CCK-8 assay; format: functional, cell-based; conditions: Huh-7, 96 h
[28] = Cytotoxicity against human SKOV3 cells after 96 hrs by CCK-8 assay; format: functional, cell-based; conditions: SK-OV-3, 96 h
[29] = Cytotoxicity against human Hep3B cells after 96 hrs by CCK-8 assay; format: functional, cell-based, Hep 3B2
[30] = test system: HT-29; experiment: Cytotoxicity against human HT-29 cells after 96 hrs by CCK-8 assay; format: functional, cell-based; conditions: HT-29, 96 h
[31] = Cytotoxicity against human PANC1 cells after 96 hrs by CCK-8 assay; format: functional, cell-based; conditions: PANC-1, 96 h
[32] = Cytotoxicity against human SKHEP1 cells after 96 hrs by CCK-8 assay; format: functional, cell-based; conditions: SK-HEP1, 96 h
[33] = test system: CNE; experiment: Cytotoxicity against human CNE cells after 96 hrs by CCK-8 assay; format: functional, cell-based
[34] = test system: SW480; experiment: Cytotoxicity against human SW480 cells after 96 hrs by CCK-8 assay; format: functional, cell-based; conditions: SW480, 96 h

T1 sequence (Q96GD4 whole entry): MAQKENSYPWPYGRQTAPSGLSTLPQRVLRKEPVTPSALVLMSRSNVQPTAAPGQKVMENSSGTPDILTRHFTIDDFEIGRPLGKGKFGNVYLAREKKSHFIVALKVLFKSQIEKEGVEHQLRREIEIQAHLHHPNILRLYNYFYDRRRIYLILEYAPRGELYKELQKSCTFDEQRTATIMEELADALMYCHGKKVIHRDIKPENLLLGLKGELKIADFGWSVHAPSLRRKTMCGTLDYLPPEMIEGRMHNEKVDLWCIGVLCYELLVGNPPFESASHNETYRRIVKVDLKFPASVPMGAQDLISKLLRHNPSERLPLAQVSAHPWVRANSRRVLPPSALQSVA

SMILES: O=C1/C(=C\c2ccc(O)c(O)c2)Oc2ccccc21
- IC50 [1]: 0.735 µM
- IC50 [2]: 1.34 µM
- IC50 [3]: 2.63 µM
- IC50 [4]: 3.7 µM
- IC50 [5]: 4.04 µM
- IC50 [6]: 4.75 µM
- IC50 [7]: 5.19 µM
- IC50 [8]: 5.96 µM
- IC50 [9]: 11.5 µM
- IC50 [10]: 19.5 µM
- IC50 [11]: 26.8 µM
- IC50 [12]: 37.4 µM
- IC50 [13]: 38.6 µM
- IC50 [14]: 78.8 µM
- IC50 [15]: 100 µM
- Kd [16]: 12.9 µM
- Kd [17]: 3.06 µM
- IC50 [18]: 3.9 µM
- IC50 [19]: 8.2 µM
- IC50 [20]: 13.4 µM
- IC50 [21]: 13.4 µM
- IC50 [22]: 16.2 µM
- IC50 [23]: 19.8 µM
- IC50 [24]: 20.3 µM
- IC50 [25]: 20.4 µM
- IC50 [26]: 20.7 µM
- IC50 [27]: 21.1 µM
- IC50 [28]: 26.1 µM
- IC50 [29]: 28.7 µM
- IC50 [30]: 34.9 µM
- IC50 [31]: 36.5 µM
- IC50 [32]: 41.9 µM
- IC50 [33]: 45.5 µM
- IC50 [34]: 50 µM
